Reference: paper PMC4698714, “Allosteric effects of chromophore interaction with dimeric near-infrared fluorescent proteins engineered from bacterial phytochromes” (Scientific Reports, 2016)

Target: T1, iRFP713 (Rhodopseudomonas palustris, UniProt G1FNL7, C15S)
T1 construct: gene iRFP; N-terminal polyhistidine tag; E. coli LMG194 with heme oxygenase; dimer
Assay: zinc-staining SDS-PAGE, absorption/fluorescence spectra, GdnHCl unfolding
Conditions: noncovalent; GAF pocket; no BV-binding Cys

C=CC1=C(C)C(=Cc2[nH]c(C=C3N=C(C=C4NC(=O)C(C)=C4C=C)C(C)=C3CCC(=O)O)c(CCC(=O)O)c2C)NC1=O [biliverdin IXα]
zinc-staining SDS-PAGE, absorption/fluorescence spectra, GdnHCl unfolding: BV was the most weakly associated with NIR FP variants having no Cys residues
